Results as given in ChEMBL document CHEMBL4507318, “Data for DCP probe BAY-985” (2021).

Key:
[1] = molecular target: Sigma intracellular receptor 2 (Homo sapiens, UniProt Q5BJF2); test: GPCRScan assay: inhibition of Sigma 2; set-up: radioligand conc. used [nm] 5.0, parental cells HEKT
[2] = system: Tyrosine-protein kinase ABL1 (Homo sapiens), P00519 [F317I]
[3] = system: Tyrosine-protein kinase ABL1 (Homo sapiens), P00519 [H396P]
[4] = system: Tyrosine-protein kinase ABL1 (Homo sapiens), P00519 [Y253F]
[5] = molecular target: RAC-beta serine/threonine-protein kinase (Homo sapiens) (UniProt P31751)
[6] = molecular target: Aurora kinase B (Homo sapiens) (UniProt Q96GD4)
[7] = molecular target: Aurora kinase C (Homo sapiens) (UniProt Q9UQB9)
[8] = molecular target: Bone morphogenetic protein receptor type-1B (Homo sapiens) (UniProt O00238)
[9] = molecular target: Calcium/calmodulin-dependent protein kinase type II subunit delta (Homo sapiens) (UniProt Q13557)
[10] = molecular target: Cyclin-dependent kinase 4 (Homo sapiens) (UniProt P11802)
[11] = molecular target: Cyclin-dependent kinase 9 (Homo sapiens) (UniProt P50750)
[12] = molecular target: Death-associated protein kinase 3 (Homo sapiens) (UniProt O43293)
[13] = molecular target: Mitogen-activated protein kinase kinase kinase 12 (Homo sapiens) (UniProt Q12852)
[14] = system: Epidermal growth factor receptor (Homo sapiens), P00533 [T790M]
[15] = molecular target: Ephrin type-A receptor 1 (Homo sapiens) (UniProt P21709)
[16] = molecular target: Mitogen-activated protein kinase 7 (Homo sapiens) (UniProt Q13164)
[17] = molecular target: Tyrosine-protein kinase Fes/Fps (Homo sapiens) (UniProt P07332)
[18] = system: Receptor-type tyrosine-protein kinase FLT3 (Homo sapiens), P36888 [D835V]
[19] = molecular target: Insulin-like growth factor 1 receptor (Homo sapiens) (UniProt P08069)
[20] = molecular target: Interleukin-1 receptor-associated kinase 3 (Homo sapiens) (UniProt Q9Y616)
[21] = molecular target: Interleukin-1 receptor-associated kinase 4 (Homo sapiens) (UniProt Q9NWZ3)
[22] = system: Mast/stem cell growth factor receptor Kit (Homo sapiens), P10721 [D816V]
[23] = molecular target: LIM domain kinase 1 (Homo sapiens) (UniProt P53667)
[24] = molecular target: Serine/threonine-protein kinase 10 (Homo sapiens) (UniProt O94804)
[25] = molecular target: Mitogen-activated protein kinase kinase kinase 15 (Homo sapiens) (UniProt Q6ZN16)
[26] = molecular target: MAP kinase-activated protein kinase 5 (Homo sapiens) (UniProt Q8IW41)
[27] = molecular target: MAP kinase-interacting serine/threonine-protein kinase 2 (Homo sapiens) (UniProt Q9HBH9)
[28] = molecular target: Mitogen-activated protein kinase kinase kinase 10 (Homo sapiens) (UniProt Q02779)
[29] = molecular target: Mitogen-activated protein kinase kinase kinase 11 (Homo sapiens) (UniProt Q16584)
[30] = molecular target: Macrophage-stimulating protein receptor (Homo sapiens) (UniProt Q04912)
[31] = molecular target: Serine/threonine-protein kinase 24 (Homo sapiens) (UniProt Q9Y6E0)
[32] = molecular target: Myosin light chain kinase 2, skeletal/cardiac muscle (Homo sapiens) (UniProt Q9H1R3)
[33] = molecular target: Mitogen-activated protein kinase 14 (Homo sapiens) (UniProt Q16539)
[34] = molecular target: Phosphatidylinositol 4-phosphate 3-kinase C2 domain-containing subunit beta (Homo sapiens) (UniProt O00750)
[35] = system: Phosphatidylinositol 4,5-bisphosphate 3-kinase catalytic subunit alpha isoform (Homo sapiens), P42336 [E542K]
[36] = molecular target: Protein-tyrosine kinase 2-beta (Homo sapiens) (UniProt Q14289)
[37] = molecular target: Ribosomal protein S6 kinase beta-1 (Homo sapiens) (UniProt P23443)
[38] = molecular target: Serine/threonine-protein kinase Sgk3 (Homo sapiens) (UniProt Q96BR1)
[39] = molecular target: Tyrosine-protein kinase Srms (Homo sapiens) (UniProt Q9H3Y6)
[40] = molecular target: Testis-specific serine/threonine-protein kinase 1 (Homo sapiens) (UniProt Q9BXA7)
[41] = molecular target: Serine/threonine-protein kinase WNK4 (Homo sapiens) (UniProt Q96J92)
[42] = molecular target: Tyrosine-protein kinase ZAP-70 (Homo sapiens) (UniProt P43403)
[43] = molecular target: 5-hydroxytryptamine receptor 1B (Homo sapiens) (UniProt P28222); conditions: Compound concentration 10.0 uM
[44] = molecular target: 5-hydroxytryptamine receptor 7 (Homo sapiens) (UniProt P34969); conditions: Compound concentration 10.0 uM
[45] = molecular target: Delta-type opioid receptor (Homo sapiens) (UniProt P41143); conditions: Compound concentration 10.0 uM
[46] = Compound concentration 1000.0 nM
[47] = Compound concentration 100.0 nM

Chain of Sigma intracellular receptor 2 (Q5BJF2 whole entry): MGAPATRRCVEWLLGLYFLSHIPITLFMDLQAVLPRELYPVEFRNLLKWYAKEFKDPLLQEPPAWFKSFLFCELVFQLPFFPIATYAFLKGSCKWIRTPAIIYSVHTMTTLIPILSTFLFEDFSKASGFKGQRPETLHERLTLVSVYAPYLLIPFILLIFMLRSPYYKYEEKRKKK
Chain of Mitogen-activated protein kinase 7 (Homo sapiens) (Q13164 2-816 limits assumed): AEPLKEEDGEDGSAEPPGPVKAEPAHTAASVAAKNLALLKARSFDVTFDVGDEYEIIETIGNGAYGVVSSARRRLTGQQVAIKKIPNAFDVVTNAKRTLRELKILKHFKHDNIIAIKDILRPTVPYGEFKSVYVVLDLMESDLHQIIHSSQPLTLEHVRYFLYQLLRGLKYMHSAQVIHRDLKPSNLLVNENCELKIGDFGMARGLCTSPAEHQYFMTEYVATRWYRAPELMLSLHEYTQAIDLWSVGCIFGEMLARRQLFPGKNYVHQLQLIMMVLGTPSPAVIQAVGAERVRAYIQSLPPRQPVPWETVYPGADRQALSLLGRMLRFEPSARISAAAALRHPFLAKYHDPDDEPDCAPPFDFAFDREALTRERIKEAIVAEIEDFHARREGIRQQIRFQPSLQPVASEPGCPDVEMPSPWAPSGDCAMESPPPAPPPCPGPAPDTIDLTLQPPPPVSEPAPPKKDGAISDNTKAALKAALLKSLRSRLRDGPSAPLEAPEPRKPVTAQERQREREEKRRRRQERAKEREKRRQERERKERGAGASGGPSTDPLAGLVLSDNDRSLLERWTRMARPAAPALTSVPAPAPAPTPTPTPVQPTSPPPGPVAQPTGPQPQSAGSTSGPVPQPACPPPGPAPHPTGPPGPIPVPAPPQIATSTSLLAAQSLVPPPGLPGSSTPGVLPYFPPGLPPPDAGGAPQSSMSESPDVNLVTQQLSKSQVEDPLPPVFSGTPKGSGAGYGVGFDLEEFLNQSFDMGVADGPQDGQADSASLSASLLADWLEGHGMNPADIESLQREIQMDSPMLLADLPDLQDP
Chain of Aurora kinase C (Homo sapiens) (Q9UQB9 whole entry): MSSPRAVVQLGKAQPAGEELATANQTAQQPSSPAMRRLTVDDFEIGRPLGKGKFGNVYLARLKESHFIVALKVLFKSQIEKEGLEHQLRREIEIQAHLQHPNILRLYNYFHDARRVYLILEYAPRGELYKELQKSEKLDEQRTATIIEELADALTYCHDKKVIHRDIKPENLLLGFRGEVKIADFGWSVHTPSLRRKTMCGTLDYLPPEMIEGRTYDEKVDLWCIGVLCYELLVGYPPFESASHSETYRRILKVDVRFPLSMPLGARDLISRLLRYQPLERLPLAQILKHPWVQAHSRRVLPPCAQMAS
Chain of Mitogen-activated protein kinase kinase kinase 11 (Homo sapiens) (Q16584 whole entry, looked up): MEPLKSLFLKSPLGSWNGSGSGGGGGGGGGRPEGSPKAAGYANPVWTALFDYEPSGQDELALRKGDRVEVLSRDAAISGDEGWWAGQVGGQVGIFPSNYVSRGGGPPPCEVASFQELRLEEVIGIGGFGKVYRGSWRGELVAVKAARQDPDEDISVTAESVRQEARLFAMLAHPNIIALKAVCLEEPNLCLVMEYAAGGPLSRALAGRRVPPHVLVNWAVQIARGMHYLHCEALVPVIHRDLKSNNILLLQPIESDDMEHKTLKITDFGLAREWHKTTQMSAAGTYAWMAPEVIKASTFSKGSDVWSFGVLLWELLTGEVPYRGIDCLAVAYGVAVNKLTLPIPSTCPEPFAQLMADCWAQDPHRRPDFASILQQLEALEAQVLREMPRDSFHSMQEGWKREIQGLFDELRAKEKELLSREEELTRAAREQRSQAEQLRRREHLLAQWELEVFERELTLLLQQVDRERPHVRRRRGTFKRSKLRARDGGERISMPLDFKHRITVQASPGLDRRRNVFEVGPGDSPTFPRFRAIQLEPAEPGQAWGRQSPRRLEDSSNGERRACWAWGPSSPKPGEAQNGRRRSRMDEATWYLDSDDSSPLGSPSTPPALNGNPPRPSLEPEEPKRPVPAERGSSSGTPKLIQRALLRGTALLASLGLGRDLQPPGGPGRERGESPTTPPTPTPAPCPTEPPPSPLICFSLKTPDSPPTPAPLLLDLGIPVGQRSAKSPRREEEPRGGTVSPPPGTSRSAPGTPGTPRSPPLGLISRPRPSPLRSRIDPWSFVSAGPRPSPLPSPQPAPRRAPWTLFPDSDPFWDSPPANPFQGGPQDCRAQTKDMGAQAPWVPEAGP
Chain of Bone morphogenetic protein receptor type-1B (Homo sapiens) (O00238 whole entry): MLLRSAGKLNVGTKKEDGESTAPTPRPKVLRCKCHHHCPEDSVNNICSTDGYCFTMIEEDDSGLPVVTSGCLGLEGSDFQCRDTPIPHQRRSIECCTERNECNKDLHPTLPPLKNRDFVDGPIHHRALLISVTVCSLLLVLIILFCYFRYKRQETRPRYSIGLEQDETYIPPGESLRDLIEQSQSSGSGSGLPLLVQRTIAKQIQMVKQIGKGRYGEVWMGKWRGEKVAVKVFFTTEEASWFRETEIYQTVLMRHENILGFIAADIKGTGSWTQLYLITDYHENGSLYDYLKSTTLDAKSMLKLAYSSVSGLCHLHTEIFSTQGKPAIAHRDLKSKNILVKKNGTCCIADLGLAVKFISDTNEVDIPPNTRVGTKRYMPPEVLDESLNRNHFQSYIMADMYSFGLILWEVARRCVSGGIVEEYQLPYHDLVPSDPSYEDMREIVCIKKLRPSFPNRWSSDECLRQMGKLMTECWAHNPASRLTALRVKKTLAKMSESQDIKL
Chain of Death-associated protein kinase 3 (Homo sapiens) (O43293 whole entry, looked up): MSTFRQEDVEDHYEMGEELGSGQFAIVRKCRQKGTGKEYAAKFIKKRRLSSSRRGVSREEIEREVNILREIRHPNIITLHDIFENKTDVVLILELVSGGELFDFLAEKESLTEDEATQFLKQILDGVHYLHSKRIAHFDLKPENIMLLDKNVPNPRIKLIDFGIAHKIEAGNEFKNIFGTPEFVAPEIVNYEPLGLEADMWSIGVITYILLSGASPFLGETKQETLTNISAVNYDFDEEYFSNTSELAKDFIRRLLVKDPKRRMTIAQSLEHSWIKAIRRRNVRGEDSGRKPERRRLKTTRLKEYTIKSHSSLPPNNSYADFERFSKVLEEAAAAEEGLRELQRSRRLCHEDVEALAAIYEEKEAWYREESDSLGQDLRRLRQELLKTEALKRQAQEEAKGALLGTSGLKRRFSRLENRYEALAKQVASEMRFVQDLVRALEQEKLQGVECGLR
Chain of RAC-beta serine/threonine-protein kinase (Homo sapiens) (P31751 whole entry): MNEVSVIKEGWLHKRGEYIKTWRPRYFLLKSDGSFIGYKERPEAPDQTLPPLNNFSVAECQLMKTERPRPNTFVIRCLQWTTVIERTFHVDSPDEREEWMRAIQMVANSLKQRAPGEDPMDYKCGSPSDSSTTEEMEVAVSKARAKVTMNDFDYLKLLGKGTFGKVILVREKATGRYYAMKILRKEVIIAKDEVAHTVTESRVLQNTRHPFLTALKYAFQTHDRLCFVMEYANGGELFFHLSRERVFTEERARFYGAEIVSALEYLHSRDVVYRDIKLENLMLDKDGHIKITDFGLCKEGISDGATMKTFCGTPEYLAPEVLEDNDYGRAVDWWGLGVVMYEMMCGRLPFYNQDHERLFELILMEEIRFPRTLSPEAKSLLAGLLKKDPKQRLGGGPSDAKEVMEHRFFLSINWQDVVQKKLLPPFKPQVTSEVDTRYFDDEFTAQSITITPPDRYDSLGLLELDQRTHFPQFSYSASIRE
Chain of Mitogen-activated protein kinase kinase kinase 12 (Homo sapiens) (Q12852 whole entry): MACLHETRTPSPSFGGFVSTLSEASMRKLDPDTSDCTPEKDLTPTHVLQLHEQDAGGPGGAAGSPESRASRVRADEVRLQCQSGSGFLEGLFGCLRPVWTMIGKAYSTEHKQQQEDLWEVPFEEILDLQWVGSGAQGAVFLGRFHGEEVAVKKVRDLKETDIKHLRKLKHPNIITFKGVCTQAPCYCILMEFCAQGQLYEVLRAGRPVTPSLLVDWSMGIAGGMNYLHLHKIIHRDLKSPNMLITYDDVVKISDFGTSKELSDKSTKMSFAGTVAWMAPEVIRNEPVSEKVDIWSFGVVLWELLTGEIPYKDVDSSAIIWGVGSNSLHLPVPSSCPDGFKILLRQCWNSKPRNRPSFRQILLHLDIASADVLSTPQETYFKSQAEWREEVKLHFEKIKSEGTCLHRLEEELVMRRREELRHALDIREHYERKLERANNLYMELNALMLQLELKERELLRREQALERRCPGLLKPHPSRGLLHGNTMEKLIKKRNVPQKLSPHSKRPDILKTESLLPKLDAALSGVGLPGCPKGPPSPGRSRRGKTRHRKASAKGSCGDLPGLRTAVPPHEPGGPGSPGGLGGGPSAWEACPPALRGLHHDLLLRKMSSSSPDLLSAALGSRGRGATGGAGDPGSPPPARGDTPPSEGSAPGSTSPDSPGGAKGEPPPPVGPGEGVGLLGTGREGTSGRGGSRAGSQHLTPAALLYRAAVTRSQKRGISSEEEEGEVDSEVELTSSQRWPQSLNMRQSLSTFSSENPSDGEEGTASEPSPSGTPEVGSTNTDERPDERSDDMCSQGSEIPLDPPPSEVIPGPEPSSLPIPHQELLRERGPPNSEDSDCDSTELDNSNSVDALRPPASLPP
Chain of Tyrosine-protein kinase Srms (Homo sapiens) (Q9H3Y6 whole entry): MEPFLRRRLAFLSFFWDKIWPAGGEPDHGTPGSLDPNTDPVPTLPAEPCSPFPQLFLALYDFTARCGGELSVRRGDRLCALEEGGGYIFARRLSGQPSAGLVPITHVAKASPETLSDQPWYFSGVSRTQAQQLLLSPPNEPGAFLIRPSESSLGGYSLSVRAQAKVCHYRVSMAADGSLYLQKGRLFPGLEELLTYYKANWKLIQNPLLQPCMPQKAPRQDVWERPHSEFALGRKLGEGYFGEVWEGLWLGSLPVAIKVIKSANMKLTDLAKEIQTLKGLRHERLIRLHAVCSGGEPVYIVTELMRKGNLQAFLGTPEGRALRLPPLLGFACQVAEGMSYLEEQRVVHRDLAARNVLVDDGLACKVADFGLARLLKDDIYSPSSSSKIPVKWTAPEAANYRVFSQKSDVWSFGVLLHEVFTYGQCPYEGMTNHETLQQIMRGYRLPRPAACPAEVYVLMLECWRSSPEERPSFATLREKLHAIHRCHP

CN(C)c1ncnc(-c2ccc3nc(Nc4cc(CN5CCN(C(=O)CC(F)(F)F)CC5)ccn4)[nH]c3c2)c1Cl [BAY-440]
inactive: residual activity [5, 46] 95% | residual activity [6, 46] 85% | residual activity [7, 46] 100% | residual activity [8, 46] 59% | residual activity [9, 46] 90% | residual activity [10, 46] 70% | residual activity [11, 46] 100% | residual activity [12, 46] 99% | residual activity [13, 46] 64% | residual activity [14, 46] 100% | residual activity [15, 46] 100% | residual activity [16, 46] 91% | residual activity [17, 46] 100% | residual activity [19, 46] 100% | residual activity [20, 46] 97% | residual activity [22, 46] 97% | residual activity [23, 46] 100% | residual activity [24, 46] 54% | residual activity [25, 46] 75% | residual activity [26, 46] 96% | residual activity [28, 46] 100% | residual activity [29, 46] 100% | residual activity [30, 46] 98% | residual activity [31, 46] 90% | residual activity [32, 46] 100% | residual activity [33, 46] 100% | residual activity [34, 46] 100% | residual activity [36, 46] 85% | residual activity [37, 46] 92% | residual activity [38, 46] 72% | residual activity [39, 46] 88% | residual activity [40, 46] 100% | residual activity [41, 46] 53% | residual activity [42, 46] 100% | inhibition [43] 6.15% | inhibition [44] 13.4% | inhibition [45] 2.06%
active: residual activity [2, 46] 28% | residual activity [3, 46] 4.2% | residual activity [4, 46] 37% | residual activity [18, 46] 7% | residual activity [21, 46] 39% | residual activity [27, 46] 37% | residual activity [35, 46] 29%
2190 nM: Ki ([1]; read-out: Ki)

C[C@H](c1ccnc(Nc2nc3ccc(-c4cc(N(C)C)ncn4)cc3[nH]2)c1)N1CCN(C(=O)CC(F)(F)F)CC1 [BAY-985]
inactive: residual activity [2, 47] 100% | residual activity [3, 47] 79% | residual activity [4, 47] 91% | residual activity [5, 47] 100% | residual activity [6, 47] 100% | residual activity [7, 47] 100% | residual activity [8, 47] 86% | residual activity [9, 47] 70% | residual activity [10, 47] 89% | residual activity [11, 47] 100% | residual activity [12, 47] 90% | residual activity [13, 47] 100% | residual activity [14, 47] 100% | residual activity [15, 47] 99% | residual activity [16, 47] 100% | residual activity [17, 47] 75% | residual activity [19, 47] 98% | residual activity [20, 47] 76% | residual activity [21, 47] 100% | residual activity [22, 47] 96% | residual activity [23, 47] 100% | residual activity [24, 47] 86% | residual activity [25, 47] 96% | residual activity [26, 47] 86% | residual activity [27, 47] 86% | residual activity [28, 47] 100% | residual activity [29, 47] 92% | residual activity [30, 47] 80% | residual activity [31, 47] 64% | residual activity [32, 47] 92% | residual activity [33, 47] 100% | residual activity [34, 47] 97% | residual activity [35, 47] 53% | residual activity [36, 47] 91% | residual activity [37, 47] 100% | residual activity [38, 47] 100% | residual activity [39, 47] 97% | residual activity [40, 47] 100% | residual activity [41, 47] 80% | residual activity [42, 47] 100% | inhibition [43] 11.5% | inhibition [44] 16.6% | inhibition [45] 29%
1120 nM: Ki ([1]; read-out: pKi (converted))
active: residual activity [18, 47] 32%
1160 nM: Ki ([1]; read-out: Ki)
